ChEMBL document CHEMBL1201862, “PubChem BioAssay data set” (2004)
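All cell lines were grown in 96-well plates and treated with compound for 48 hours. GI50 = concentration required for 50% inhibition of growth.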 The source made the active and inactive calls. Rule as the data show it: active = GI50 up to about 1.1 µM and inactive = higher.

Legend:
Assay in all cases: growth of human tumour cells (NCI), 48 h
[1] = system: SK-OV-3
[2] = system: HOP-62
[3] = system: NCI-H460
[4] = system: HCC 2998
[5] = system: MOLT-4
[6] = system: KM12
[7] = system: SNB-19
[8] = system: UO-31
[9] = system: EKVX
[10] = system: CAKI-1
[11] = system: SF-295
[12] = system: Malme-3M
[13] = system: SK-MEL-2
[14] = system: OVCAR-5
[15] = system: A549
[16] = system: LOX IMVI
[17] = system: CCRF-CEM
[18] = system: SK-MEL-5
[19] = system: UACC-62
[20] = system: COLO 205

Measured: GI50

O=C1c2cc(Cl)ccc2-n2cnnc2C2CSCN12 (centres undefined)
inactive: [1] > 100 µM | [2] > 100 µM | [3] > 100 µM | [4] > 100 µM | [5] > 100 µM | [6] > 100 µM | [7] > 100 µM | [8] > 100 µM | [9] > 100 µM | [10] 4.54 µM | [11] > 100 µM | [12] > 100 µM | [13] > 100 µM | [14] > 100 µM | [15] > 100 µM | [16] > 100 µM | [17] > 100 µM | [18] > 100 µM | [19] > 100 µM | [20] > 100 µM

Cc1c(CC/C(=N\Nc2ccc([N+](=O)[O-])cc2[N+](=O)[O-])c2ccccc2)c2ccccc2n1C
inactive: [1] > 100 µM | [2] > 100 µM | [3] > 100 µM | [4] > 100 µM | [5] > 43.2 µM | [6] > 100 µM | [7] > 94.4 µM | [8] > 86.9 µM | [9] > 100 µM | [10] > 100 µM | [11] > 100 µM | [12] > 100 µM | [13] > 100 µM | [14] > 100 µM | [15] > 100 µM | [16] > 100 µM | [17] > 44 µM | [18] > 100 µM | [19] > 100 µM | [20] > 100 µM

COc1ccc(/C(C#N)=C/c2ccc(OC)c(OC)c2)cc1
inactive: [1] > 100 µM | [2] > 100 µM | [3] > 100 µM | [4] 59 µM | [5] > 100 µM | [6] > 100 µM | [7] > 100 µM | [8] > 100 µM | [9] > 100 µM | [10] > 100 µM | [11] > 100 µM | [12] > 100 µM | [13] > 100 µM | [14] > 100 µM | [15] > 100 µM | [16] > 100 µM | [17] > 100 µM | [18] > 100 µM | [19] > 100 µM | [20] > 100 µM

CCn1c2ccccc2c2c(-c3ccccc3)cc3c(c21)C(=O)N(c1ccccc1)C3=O
inactive: [1] > 100 µM | [2] > 10 µM | [3] 36.6 µM | [4] > 100 µM | [5] > 100 µM | [6] > 100 µM | [7] 81.5 µM | [8] > 100 µM | [9] > 100 µM | [10] > 100 µM | [11] > 100 µM | [12] > 100 µM | [13] > 100 µM | [14] > 100 µM | [15] > 100 µM | [16] > 100 µM | [17] > 100 µM | [18] > 100 µM | [19] > 100 µM | [20] > 100 µM

O=C(CCc1nnc2s/c(=C\c3ccc(Cl)cc3Cl)c(=O)n12)Nc1cc(Cl)c(Cl)cc1Cl
inactive: [1] > 10 µM | [2] > 10 µM | [3] > 10 µM | [4] > 100 µM | [5] > 10 µM | [6] > 10 µM | [7] > 10 µM | [8] > 10 µM | [9] > 10 µM | [10] > 10 µM | [11] > 10 µM | [12] > 10 µM | [13] > 10 µM | [14] > 10 µM | [15] > 10 µM | [16] > 10 µM | [17] > 10 µM | [18] > 10 µM | [19] > 10 µM | [20] > 10 µM

COC(=O)c1c(C)cccc1C1CN=NC12Cc1c(C)cccc1C2=O (centres undefined)
inactive: [1] > 100 µM | [2] > 100 µM | [3] 97.3 µM | [4] 57.8 µM | [5] 37.4 µM | [6] 46.6 µM | [7] > 100 µM | [8] 24 µM | [9] 24.8 µM | [10] > 100 µM | [11] 51.2 µM | [12] 91.4 µM | [13] 99.3 µM | [14] > 100 µM | [15] 82.6 µM | [16] 50.9 µM | [17] > 100 µM | [18] 53 µM | [19] 40.1 µM | [20] 55.5 µM

COc1ccccc1-c1cc(O)c2cccnc2n1
inactive: [1] 58.1 µM | [2] > 100 µM | [3] 39.4 µM | [4] > 100 µM | [5] 35.2 µM | [6] 35.6 µM | [7] 69.2 µM | [8] 70.3 µM | [9] 53.6 µM | [10] 29.4 µM | [11] 67.9 µM | [12] 37.8 µM | [13] 36.5 µM | [14] > 100 µM | [15] 55 µM | [16] 33 µM | [17] 22.9 µM | [18] 31.4 µM | [19] 47.5 µM | [20] 24.8 µM

CC(=O)O[C@H]1CC[C@@]2(C)C(=CC[C@@H]3[C@@H]2CC[C@]2(C)c4nc(N)c(C#N)cc4C[C@@H]32)C1
inactive: [1] 38.2 µM | [2] 8.34 µM | [3] 19.8 µM | [4] > 55.3 µM | [5] 11.7 µM | [6] 55.1 µM | [7] > 100 µM | [8] > 100 µM | [9] 27.9 µM | [10] > 100 µM | [11] 35.7 µM | [12] 41.5 µM | [13] 35.9 µM | [14] > 85.3 µM | [15] 25.9 µM | [16] 32.2 µM | [17] 14 µM | [18] 12.8 µM | [19] 40.6 µM | [20] 20.2 µM

COCC1N=C(c2cc(OC)c(OC)c(OC)c2-c2cc3c(cc2C2OCCCO2)OCO3)O[C@H]1c1ccccc1 (some centres undefined)
inactive: [1] > 100 µM | [2] > 100 µM | [3] > 100 µM | [4] > 100 µM | [5] > 100 µM | [6] > 100 µM | [7] > 100 µM | [8] > 100 µM | [9] > 100 µM | [10] 79.4 µM | [11] > 100 µM | [12] > 100 µM | [13] > 100 µM | [14] > 100 µM | [15] > 100 µM | [16] > 100 µM | [17] > 100 µM | [18] > 100 µM | [19] > 100 µM

CC(=O)Nc1ccc(C2[C@H]3C(=O)N(c4ccc(Cc5ccc(N6C(=O)[C@@H]7ON(c8ccccc8)C(c8ccc(NC(C)=O)cc8)[C@@H]7C6=O)cc5)cc4)C(=O)[C@H]3ON2c2ccccc2)cc1 (some centres undefined)
inactive: [1] > 100 µM | [2] > 100 µM | [3] > 100 µM | [4] > 100 µM | [5] > 100 µM | [6] > 100 µM | [7] > 100 µM | [8] > 100 µM | [9] > 100 µM | [10] 98.2 µM | [11] > 100 µM | [12] > 100 µM | [13] > 100 µM | [14] > 100 µM | [15] > 100 µM | [16] > 100 µM | [17] > 100 µM | [18] 32.6 µM | [19] 70.8 µM | [20] 74.6 µM
